Among the data in patent publication US8354436B2 (4SC Discovery GmbH, priority 2011, dated 2013) are IC50 values, retold here.

What all share (assay type): cell-based
What all share (conditions): 48 hours

Assay [1] deals with PBMC from healthy human donors. The assay is described as follows: T cell proliferation assay (PHA-stimulated human PBMC, BrdU ELISA). A digest of the protocol:
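Proliferation was quantified by BrdU ELISA 48 hours after starting culture of 1×10⁵ human PBMC per well with test compound and 2 μg/ml phytohaemagglutinin. Cells came from healthy donors via Ficoll separation and were kept in RPMI1640 with 10% dialysed heat-inactivated FCS.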

Assay [2] deals with IL-17AA. The assay can be described thus: IL-17AA production by PHA-stimulated human PBMC (human homodimer IL-17A ELISA). On the procedure:
Analysis of Proliferation of and Cytokine Production by Human PBMC Stimulated with PHA
Peripheral blood mononuclear cells (PBMC) from healthy human donors were purified using Accuspin™ System-Histopaque-1077 (Sigma) according to the protocol recommended by the manufacturer. Purified PBMC were then washed twice with phosphate-buffered saline (PBS) and resuspended in RPMI1640 culture medium supplemented with 10% dialyzed heat inactivated fetal calf serum, 1.5 mM L-glutamine, 100 U penicillin/ml, and […] (all from PAN Biotech, Aidenbach, Germany). For stimulation, PBMC were seeded at 1×10^5 cells/well, activated with 2 μg/ml phytohaemagglutinin (PHA, Sigma) and incubated with the test compounds for 48 hours. IL-17A, IL-17F and INF-γ were then determined in the culture supernatant using a Luminex BioPlex system, following the manufacturer's instructions (BioRad, Munich, Germany). For screening, compounds were used at 10, 1, 0.1 and 0.01 μM. To determine the IC50, compounds were titrated semilogarithmically.
Cytokines were determined in the aforementioned culture supernatant using the following methods: IL-17AA/AF was measured using the Luminex BioPlex system (BioRad, Munich, Germany); IL-17AA using the human homodimer IL-17A ELISA Ready Set Go Kit from eBioscience (Frankfurt, Germany); IL-17FF using the human IL-17F ELI-Pair from Hölzel DiagnosticaGmBH (Köln, Germany); and IFN-γ using the OptEIA human IFN-g ELISA from BD Bioscience (Heidelberg, Germany), all following the manufacturer's instructions.
On the technique in general: An ELISA detects its analyte on a solid surface through an enzyme-linked reagent.

Assay [3] deals with IL-17FF. The assay can be described thus: IL-17FF production by PHA-stimulated human PBMC (human IL-17F ELI-Pair). The essentials:
(§1)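 PBMC from healthy donors, 1×10^5/well, 2 μg/ml PHA + compound, 48 h. Supernatant cytokine by Luminex bead assay or ELISA as listed. Screen at 10/1/0.1/0.01 μM; IC50 via semilog titration.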

For assay [4], the system named is IFN-γ. The assay is described as follows: IFN-γ production by PHA-stimulated human PBMC (OptEIA human IFN-g ELISA). The essentials:
as §1

[5] abbreviates: PHA-stimulated human PBMC, column D, read-out: IC50 (Tcell proliferation).
Setting [6] is: PHA-stimulated human PBMC, column B, read-out: IC50 (IL-17FF).
Setting [7] is: PHA-stimulated human PBMC, column C, read-out: IC50 (IFNγ).
Where [8] appears, read: human PBMC, 2 μg/ml PHA, read-out: D: IC50 (Tcell proliferation).
Setting [9] is: human PBMC, 2 μg/ml PHA, read-out: A: IC50 (IL-17AA).
The mark [10] stands for this setting: human PBMC, 2 μg/ml PHA, read-out: B: IC50 (IL-17FF).
Setting [11] is: human PBMC, 2 μg/ml PHA, read-out: C: IC50 (IFNγ).

Structures are written as SMILES. pIC50: −log10 of the molar value. Like-named read-outs stand apart in the source and are kept apart here.

For the compound `CCOC(=O)c1c(-c2c(F)cccc2Cl)noc1-c1cnn(-c2cccc(NC(C)=O)c2)c1C(F)(F)F` [IB-70, ethyl 5-(1-(3-acetamidophenyl)-5-(trifluoromethyl)-1H-pyrazol-4-yl)-3-(2-chloro-6-fluorophenyl)isoxazole-4-carboxylate], the pIC50 in assay [1] (setting [5]) is 7.00 to 8.00; in assay [2] (PHA-stimulated human PBMC, column A, values without *, read-out: IC50 (IL-17AA)) it was 7.00 to 8.00; in assay [3] (setting [6]), 7.00 to 8.00; in assay [4] (setting [7]), 7.00 to 8.00.

As to `Fc1cccc(-n2ncc(-c3onc(-c4c(F)cccc4Cl)c3-c3ccoc3)c2C(F)(F)F)c1` [Example 13, 3-(2-chloro-6-fluorophenyl)-5-(1-(3-fluorophenyl)-5-(trifluoromethyl)-1H-pyrazol-4-yl)-4-(furan-3-yl)isoxazole], the pIC50 is 5.00 to 6.00 in assay [1] (setting [8]), 5.00 to 6.00 in assay [2] (setting [9]), 6.00 to 7.00 in assay [3] (setting [10]) and 5.00 to 6.00 in assay [4] (setting [11]).

Take `Fc1ccccc1-n1ncc(-c2onc(-c3c(F)cccc3Cl)c2-c2ccoc2)c1C(F)(F)F` [Example B-9, 3-(2-chloro-6-fluorophenyl)-5-(1-(2-fluorophenyl)-5-(trifluoromethyl)-1H-pyrazol-4-yl)-4-(furan-3-yl)isoxazole]: the pIC50 is 6.00 to 7.00 in assay [1] (setting [8]), 6.00 to 7.00 in assay [2] (setting [9]), 7.00 to 8.00 in assay [3] (setting [10]) and 6.00 to 7.00 in assay [4] (setting [11]).

`O=C(Nc1c(-c2c(F)cccc2Cl)noc1-c1cnn(-c2cccc(F)c2)c1C(F)(F)F)C(F)(F)F` [IB-22, N-{3-(2-chloro-6-fluorophenyl)-5-[1-(3-fluorophenyl)-5-(trifluoromethyl)-1H-pyrazol-4-yl]-1,2-oxazol-4-yl}-2,2,2-trifluoroacetamide]: the pIC50 in assay [1] (setting [5]), in assay [3] (setting [6]) and in assay [4] (setting [7]) was 5.00 to 6.00 throughout.

`CC(C)OC(=O)c1c(-c2c(F)cccc2Cl)noc1-c1cnn(-c2cccnc2)c1C(F)(F)F` [IB-61, isopropyl 3-(2-chloro-6-fluorophenyl)-5-(1-(pyridin-3-yl)-5-(trifluoromethyl)-1H-pyrazol-4-yl)isoxazole-4-carboxylate]: the pIC50 in assay [1] (setting [5]) was 7.00 to 8.00; in assay [3] (setting [6]), 7.00 to 8.00; in assay [4] (setting [7]) it was more than 8.00.

On to `Cc1nnc(-c2c(-c3c(F)cccc3Cl)noc2-c2cnn(-c3cccnc3)c2C(F)(F)F)s1` [Example B-21, 3-(2-chloro-6-fluorophenyl)-4-(5-methyl-1,3,4-thiadiazol-2-yl)-5-(1-(pyridin-3-yl)-5-(trifluoromethyl)-1H-pyrazol-4-yl)isoxazole], for which the pIC50 in assay [1] (setting [8]), in assay [3] (setting [10]) and in assay [4] (setting [11]) was 7.00 to 8.00 each time.

For the compound `CCOC(=O)c1c(-c2c(F)cccc2Cl)noc1-c1cnn(-c2ccncc2)c1C(F)(F)F` [IB-38, ethyl 3-(2-chloro-6-fluorophenyl)-5-(1-(pyridin-4-yl)-5-(trifluoromethyl)-1H-pyrazol-4-yl)-isoxazole-4-carboxylate], the pIC50 in assay [1] (setting [5]), in assay [3] (setting [6]) and in assay [4] (setting [7]) was more than 8.00 each time.

Turning to `CCOC(=O)c1c(-c2ccncc2F)noc1-c1cnn(-c2cccnc2)c1C(F)(F)F` [IB-17, ethyl 3-(3-fluoropyridin-4-yl)-5-(1-(pyridin-3-yl)-5-(trifluoromethyl)-1H-pyrazol-4-yl)isoxazole-4-carboxylate], the pIC50 is 5.00 to 6.00 in assay [1] (setting [5]), 6.00 to 7.00 in assay [3] (setting [6]) and 5.00 to 6.00 in assay [4] (setting [7]).

`CCOC(=O)c1c(-c2c(F)cccc2Cl)noc1-c1cnn(-c2cccnc2)c1C(F)(F)F` [IB-37, ethyl 3-(2-chloro-6-fluorophenyl)-5-(1-(pyridin-3-yl)-5-(trifluoromethyl)-1H-pyrazol-4-yl)-isoxazole-4-carboxylate]: the pIC50 in assay [1] (setting [5]), in assay [3] (setting [6]) and in assay [4] (setting [7]) was more than 8.00 in each case.

As for `CC(=O)Nc1cccc(-n2ncc(-c3onc(-c4c(F)cccc4Cl)c3-c3nnc(C)s3)c2C(F)(F)F)c1` [Example B-12, N-(3-(4-(3-(2-chloro-6-fluorophenyl)-4-(5-methyl-1,3,4-thiadiazol-2-yl)isoxazol-5-yl)-5-(trifluoromethyl)-1H-pyrazol-1-yl)phenyl)acetamide], the values for the pIC50 in assay [1] (setting [8]), in assay [3] (setting [10]) and in assay [4] (setting [11]) were 5.00 to 6.00, 5.00 to 6.00 and 6.00 to 7.00, respectively.

As for `CCOC(=O)c1c(-c2c(F)cccc2Cl)noc1-c1cnn(-c2ccccc2Br)c1C(F)(F)F` [IB-72, ethyl 5-(1-(2-bromophenyl)-5-(trifluoromethyl)-1H-pyrazol-4-yl)-3-(2-chloro-6-fluorophenyl)isoxazole-4-carboxylate], the pIC50 in assay [1] (setting [5]), in assay [3] (setting [6]) and in assay [4] (setting [7]) was 6.00 to 7.00 in each case.

`CC(C)NS(=O)(=O)c1cccc(-n2ncc(-c3onc(-c4c(F)cccc4Cl)c3C(=O)OC(C)C)c2C(F)(F)F)c1` [IB-79, isopropyl 3-(2-chloro-6-fluorophenyl)-5-(1-(3-(N-isopropylsulfamoyl)phenyl)-5-(trifluoromethyl)-1H-pyrazol-4-yl)isoxazole-4-carboxylate]: the pIC50 in assay [1] (setting [5]), in assay [3] (setting [6]) and in assay [4] (setting [7]) was 6.00 to 7.00 throughout.

With `CCOC(=O)c1c(-c2c(Cl)cncc2Cl)noc1-c1cnn(-c2ccccn2)c1C(F)(F)F` [IB-5, ethyl 3-(3,5-dichloropyridin-4-yl)-5-(1-(pyridin-2-yl)-5-(trifluoromethyl)-1H-pyrazol-4-yl)isoxazole-4-carboxylate], the results for the pIC50 in assay [1] (setting [5]), in assay [3] (setting [6]) and in assay [4] (setting [7]) were 5.00 to 6.00, 5.00 to 6.00 and 6.00 to 7.00, respectively.

Regarding `Fc1cccc(Cl)c1-c1noc(-c2cnn(-c3cccc(Cl)c3)c2C(F)(F)F)c1-c1nnn[nH]1` [Example 3, 3-(2-chloro-6-fluorophenyl)-5-(1-(3-chlorophenyl)-5-(trifluoromethyl)-1H-pyrazol-4-yl)-4-(1H-tetrazol-5-yl)isoxazole], the pIC50 in assay [1] (setting [8]), in assay [3] (setting [10]) and in assay [4] (setting [11]) was 5.00 to 6.00 in each case.

Turning to `COC(=O)c1c(-c2c(F)cccc2Cl)noc1-c1cnn(-c2ccc(C(C)(C)C)cc2)c1C(F)(F)F` [Example I-81, methyl 5-(1-(4-tert-butylphenyl)-5-(trifluoromethyl)-1H-pyrazol-4-yl)-3-(2-chloro-6-fluorophenyl)isoxazole-4-carboxylate], the pIC50 in assay [1] (setting [5]) was 5.00 to 6.00; in assay [3] (setting [6]), 5.00 to 6.00; in assay [4] (setting [7]), 6.00 to 7.00.

As for `CCOC(=O)c1c(-c2onc(-c3c(F)cccc3Cl)c2C(=O)OC)cnn1-c1cccc(C#N)c1` [Example I-13, methyl 3-(2-chloro-6-fluorophenyl)-5-(1-(3-cyanophenyl)-5-(ethoxycarbonyl)-1H-pyrazol-4-yl)isoxazole-4-carboxylate], the pIC50 in assay [1] (setting [5]), in assay [3] (setting [6]) and in assay [4] (setting [7]) was 6.00 to 7.00 throughout.

For `COC(=O)c1c(-c2c(F)cccc2Cl)noc1-c1cnn(C(C)C)c1C(F)(F)F` [Example I-66, methyl 3-(2-chloro-6-fluorophenyl)-5-(1-isopropyl-5-(trifluoromethyl)-1H-pyrazol-4-yl)isoxazole-4-carboxylate], the pIC50 is 5.00 to 6.00 in assay [1] (setting [5]), 5.00 to 6.00 in assay [3] (setting [6]) and 6.00 to 7.00 in assay [4] (setting [7]).
